Assay results reported in patent US20150183827A1, “CELL PENETRATING PEPTIDES & METHODS OF IDENTIFYING CELL PENETRATING PEPTIDES” (Hoffmann-La Roche Inc., priority 2012, published 2015).
* marks the point of attachment. FITC = O=C1OC2(c3ccc(O)cc3Oc3cc(O)ccc32)c2ccc(NC(=S)*)cc21; Ahx = NCCCCCC(=O)O

Tested on: H460 cells
Experiment: cell penetration of FITC-tagged peptides in H460 cells (confocal fluorescence imaging)
Format: cell-based
Conditions: 3 μm, 2 hours, FIGS. 3A-3B
Experimental: The peptides of Examples 1-19 were tested for cell penetration in H460 and HeLa cell lines as follows.
The H460 cell line and HeLa (ATCC) were maintained in growth media then passaged every 2-3 days. Growth media for H460 was RPMI 1640, 10% fetal calf serum, sodium pyruvate, antibiotics and glutamine (GIBCO). Growth media for HeLa cells was DMEM supplemented with 10% heat-inactivated fetal calf serum, antibiotics and glutamine (GIBCO).
Cells were plated onto Whatman glass-bottom 96-well plates or Perkin Elmer glass-bottom 96-well plates and cultured overnight. Peptide stocks were prepared in DMSO and were diluted in cell growth media for cellular uptake studies. After 2 and 24 h of peptide incubation at various concentrations, media was removed followed by three washes of acidic saline. Formaldehyde fixation, with or without Hoechst 33342 dye solution (to stain nuclei), was followed by PBS washes. Plates were imaged on the Operetta High Content Imaging system in confocal fluorescence mode using the 40×water immersion high NA objective.

Row | Substance | cell penetration as determined by the fluorescence
1 | FITC-6Ahx-KVFSPKKKMEFFLLF-NH2 ({FITC-Ahx}-KVFSPKKKMEFFLLF-NH2; SMILES CSCC[C@H](NC(=O)[C@H](CCCCN)NC(=O)[C@H](CCCCN)NC(=O)[C@H](CCCCN)NC(=O)[C@@H]1CCCN1C(=O)[C@H](CO)NC(=O)[C@H](Cc1ccccc1)NC(=O)[C@@H](NC(=O)[C@H](CCCCN)NC(=O)CCCCCNC(=S)Nc1ccc2c(c1)C(=O)OC21c2ccc(O)cc2Oc2cc(O)ccc21)C(C)C)C(=O)N[C@@H](CCC(=O)O)C(=O)N[C@@H](Cc1ccccc1)C(=O)N[C@@H](Cc1ccccc1)C(=O)N[C@@H](CC(C)C)C(=O)N[C@@H](CC(C)C)C(=O)N[C@@H](Cc1ccccc1)C(N)=O) [Example 12] | low but still cell penetrating
2 | FITC-6Ahx-LLPQWPRIRHIKLLR-NH2 ({FITC-Ahx}-LLPQWPRIRHIKLLR-NH2; SMILES CC[C@H](C)[C@H](NC(=O)[C@H](Cc1c[nH]cn1)NC(=O)[C@H](CCCNC(=N)N)NC(=O)[C@@H](NC(=O)[C@H](CCCNC(=N)N)NC(=O)[C@@H]1CCCN1C(=O)[C@H](Cc1c[nH]c2ccccc12)NC(=O)[C@H](CCC(N)=O)NC(=O)[C@@H]1CCCN1C(=O)[C@H](CC(C)C)NC(=O)[C@H](CC(C)C)NC(=O)CCCCCNC(=S)Nc1ccc2c(c1)C(=O)OC21c2ccc(O)cc2Oc2cc(O)ccc21)[C@@H](C)CC)C(=O)N[C@@H](CCCCN)C(=O)N[C@@H](CC(C)C)C(=O)N[C@@H](CC(C)C)C(=O)N[C@@H](CCCNC(=N)N)C(N)=O) [Example 19] | low but still cell penetrating
3 | FITC-6Ahx-MRMIRFRKKIPYLRY-NH2 ({FITC-Ahx}-MRMIRFRKKIPYLRY-NH2; SMILES CC[C@H](C)[C@H](NC(=O)[C@H](CCSC)NC(=O)[C@H](CCCNC(=N)N)NC(=O)[C@H](CCSC)NC(=O)CCCCCNC(=S)Nc1ccc2c(c1)C(=O)OC21c2ccc(O)cc2Oc2cc(O)ccc21)C(=O)N[C@@H](CCCNC(=N)N)C(=O)N[C@@H](Cc1ccccc1)C(=O)N[C@@H](CCCNC(=N)N)C(=O)N[C@@H](CCCCN)C(=O)N[C@@H](CCCCN)C(=O)N[C@H](C(=O)N1CCC[C@H]1C(=O)N[C@@H](Cc1ccc(O)cc1)C(=O)N[C@@H](CC(C)C)C(=O)N[C@@H](CCCNC(=N)N)C(=O)N[C@@H](Cc1ccc(O)cc1)C(N)=O)[C@@H](C)CC) [Example 14] | low but still cell penetrating
4 | FITC-6Ahx-VKIWFQNRRVRWRKR-NH2 ({FITC-Ahx}-VKIWFQNRRVRWRKR-NH2; SMILES CC[C@H](C)[C@H](NC(=O)[C@H](CCCCN)NC(=O)[C@@H](NC(=O)CCCCCNC(=S)Nc1ccc2c(c1)C(=O)OC21c2ccc(O)cc2Oc2cc(O)ccc21)C(C)C)C(=O)N[C@@H](Cc1c[nH]c2ccccc12)C(=O)N[C@@H](Cc1ccccc1)C(=O)N[C@@H](CCC(N)=O)C(=O)N[C@@H](CC(N)=O)C(=O)N[C@@H](CCCNC(=N)N)C(=O)N[C@@H](CCCNC(=N)N)C(=O)N[C@H](C(=O)N[C@@H](CCCNC(=N)N)C(=O)N[C@@H](Cc1c[nH]c2ccccc12)C(=O)N[C@@H](CCCNC(=N)N)C(=O)N[C@@H](CCCCN)C(=O)N[C@@H](CCCNC(=N)N)C(N)=O)C(C)C) [Example 13] | medium
